The source of these data is patent US12285434B2, “Therapeutic, preventive, or improvement agent for inflammatory disease and allergic disease” (The University of Tokyo, priority 2018, dated 2025).

Experiment [1] concerns eNOS phosphorylation in HUVECs. Kind of experiment: Histamine-induced eNOS phosphorylation (Western blot). The class given is cell-based, human. As to conditions: pretreatment 0.1 μM, 15 minutes; histamine 10 μM, 5 minutes. As for the experimental part: In Examples 4 to 6, human umbilical vein endothelial cells (hereinafter, sometimes referred to as “HUVECs”, manufactured by Lonza) were cultured in EGM-2 (manufactured by Lonza K.K.). These cells (passages 4 to 9) were used for experiments after 4-hour starvation in EBM-2 (manufactured by Lonza K.K.) containing 2% FBS.
To the plates on which the HUVECs were cultured, 5,6-DiHETE was added so as to attain 100 nM, and, 15 minutes after the addition, histamine was added so as to attain 10 μM. Then, in order to measure the protein masses of phosphorylated eNOS and eNOS, 5 minutes after the administration of histamine, the HUVECs were lysed with a modified lysis buffer (50 mM Tris-HCl (pH 7.4), 0.1 mM EDTA, 0.1 mM EGTA, 1% NP-40 substitute, 0.1% SDS, 0.1% deoxycholic acid, 50 mM NaF, 1 mM Na3VO4, and 10 mM β-glycerophosphate). […] Bands were detected and quantified using an Odyssey system (manufactured by LI-COR Biosciences) (FIG. 5B). Specifically, the bands of phosphorylated eNOS and eNOS were detected by scanning (800 nm) with the Odyssey system, and their intensity (band brightness) was quantified. The phosphorylation level of eNOS (ratio of phosphorylated eNOS to eNOS) was quantified and evaluated by a relative value obtained by dividing the band brightness of phosphorylated eNOS by the band brightness of eNOS. […]

The subject of experiment [2] is mouse aortae. Kind of experiment: Measurement of vascular contraction of aorta (aortic ring specimens). As for the experimental part:
After excision of the thoracic aortae from untreated mice and removal of fat and connective tissue, the aortae were cut into rings to prepare aortic ring specimens. The ring specimens were immersed in a liquid tank filled with a normal nutrient solution (physiological saline solution containing 136.9 mM NaCl, 5.4 mM KCl, 5.5 mM glucose, 23.8 mM NaHCO3, 1.5 mM CaCl2, 1.0 mM MgCl2 and 0.01 mM EDTA), and two stainless hooks were penetrated through the lumens of the ring specimens. One end of each of the stainless hooks was fixed, and the other end thereof was connected to a force-displacement transducer (T7-30-240, manufactured by Orientec Co., Ltd.) connected to a strain amplifier (3134 strain AMPL, manufactured by Yokogawa Test & Measurement Corporation). Then, the following operation (a), (b) or (c) was performed.
(a) Norepinephrine (manufactured by Sigma) was cumulatively added into the liquid tank containing the ring specimens after stabilization of each contraction (every about 30 minutes) so as to attain 0.001 μM, 0.01 μM, 0.1 μM and 1 μM, and this group was designated as a “norepinephrine-administered group” (n=4) (FIG. 3A). 5,6-DiHETE was cumulatively added into the liquid tank containing the ring specimen after stabilization of each contraction (every about 30 minutes) so as to attain 0.001 μM, 0.01 μM, 0.1 μM and 1 μM, and this group was designated as a “5,6-DiHETE-administered group” (n=4) (FIG. 3A).
(b) Norepinephrine was added into the liquid tank containing the ring specimens so as to attain 0.3 μM, and precontraction was induced by administration of norepinephrine (FIG. 3B). Then, after the contraction by the administration of norepinephrine was stabilized, acetylcholine (manufactured by Sigma) was cumulatively added after stabilization of each relaxation reaction (every about 15 minutes) so as to attain 0.03 μM, 0.1 μM, 0.3 μM and 1 μM, and this group was designated as an “acetylcholine-administered group” (FIG. 3B). After the contraction by the administration of norepinephrine was stabilized, 5,6-DiHETE was cumulatively added every about 15 minutes so as to attain 0.001 μM, 0.01 μM, 0.1 μM and 1 μM, and this group was designated as a “5,6-DiHETE-administered group” (n=4) (FIG. 3B).
(c) In order to verify the effect of 5,6-DiHETE on the acetylcholine administration, norepinephrine was added into the liquid tank containing the ring specimens so as to attain 1 μM. After the contraction by the administration of norepinephrine was stabilized, 5,6-DiHETE or a vehicle (solvent alone) was added so as to attain 1 μM. […]
In the above operations (a) to (c), tension (contractile force) generated in the aortic ring specimens was measured isometrically over time using the above force-displacement transducer under a resting tension of 3 mN, and recorded.

Consider `CC/C=C\C/C=C\C/C=C\C/C=C\C[C@@H](O)[C@@H](O)CCCC(=O)O` (racemic) [5,6-DiHETE, (±) 5,6-dihydroxy-8Z,11Z,14Z,17Z-eicosatetraenoic acid], for which, in experiment [1], the “histamine-induced phosphorylation of eNOS (serine 1177)” value is reported as “significantly reduced histamine-induced phosphorylation of eNOS”. Besides, in experiment [2] (1 μM pretreatment, precontraction 1 μM norepinephrine, acetylcholine 0.03-1 μM), the “acetylcholine-induced aortic relaxation vs vehicle-administered group” value is “significantly attenuated”. In experiment [2] (cumulative addition 0.001, 0.01, 0.1 and 1 μM), the contraction of aorta entry is “no contraction was caused”. The “effect on aorta precontracted by norepinephrine” value in experiment [2] (precontraction 0.3 μM norepinephrine, cumulative 0.001, 0.01, 0.1 and 1 μM) was “did not affect the precontraction by norepinephrine”.
